Assay results from patent publication US20250340510A1, “Substituted Phenylbenzenesulfonamide Derivatives and Uses Thereof” (Nine Square Therapeutics Corporation, priority 2022, published 2025).
pEC50: −log10 of the molar value.

Assays:
TFEB = TFEB translocation assay in HeLa cells (nuclear to cytoplasmic TFEB ratio, high-content imaging); type: cell-based; conditions: 90 mins incubation at 37° C., ratio of nuclear to cytoplasmic TFEB
Procedure: Example B2. TFEB Translocation Assay
Rabbit TFEB antibody, Cell Signaling Technology #4240S
PFA 16% MeOH-free, Election Microscopy Sciences #50-980-487
HCS CellMask Deep Red, ThermoFisher Scientific #H32721
Plates: Perkin Elmer Phenoplate #605730 black optically clear, tissue culture treated 384-well plate
Example B2.2 Method, Day 1: Cells Seeded in 384WP
Cells were seeded in the afternoon. The outer one row of the plate was not used to avoid outer well edge effects.
HeLa cells were detached using trypsin, and the cells were counted using a cell counter.
4000 HeLa cells were seeded per well in […] growth media (DMEM with 10% FBS, 1 mM sodium pyruvate and Pen-Strep).
Example B2.3 Method, Day 2: Assay with TRPML1 Compounds+Staining
Compounds were added to cells using a Tecan D300e dispenser.
Cells were incubated for 90 mins at 37° C. with the compounds (compound range: 80 nM-[…] (2× step dilution—8 dilution steps, 3 replicates per condition)
The cells were fixed by adding 16.5 μL of 16% PFA (4% final) and incubating for 15 min at room temperature.
The cells were washed with 3× in PBS-TX (PBS+0.1% Triton X-100)−1×100 μL followed by 2×50 μL.
The cells were blocked and permeabilized in 30 μL of blocking buffer (PBS-TX+5% goat serum) for 1 h.
The cells were incubated with TFEB antibody (1:200, CST 4240S) in 30 μL blocking buffer overnight at 4° C. The plates were kept damp to avoid evaporation.
Example B2.4 Method, Day 3: Staining+Imaging
The cells were washed 3× in PBS-TX—3×100 μL with a Biotek EL406 washer.
The cells were incubated with Goat anti-Rb Alexa-Fluor 488 (1:2000), cell mask (1:10,000) and Hoechst (1:10,000) in 30 μL blocking buffer for 1 h at room temperature. The solution was dispensed using a 5 μL peristaltic cassette (EL406).
The cells were washed 3× in PBS-TX—3×100 μL with a EL406 washer, then […] PBS was dispensed using a 5 μL peristaltic cassette (EL406).
The cells were imaged on an Operetta CLS High-content imaging system using a 20× water immersion objective (NA 1.0) the same day.
Image analysis was performed using Harmony V4.9 (Perkin Elmer). Briefly, nuclei were segmented from background-corrected images using Hoechst intensity, and cell body segmented using HCS CellMask DeepRed. A sliding parabola filter was applied to the AlexaFluor 488 channel (TFEB), before sum pixel intensity in the nuclear and cytoplasmic regions was calculated. A ratio of nuclear to cytoplasmic TFEB was used to define TFEB translocation from the cytosolic to nuclear compartment. The EC50 values derived by fitting the data to a sigmoidal dose response curve using Prism 9 (Graphpad).

TRPML1 = TRPML1 (Homo sapiens, UniProt Q9GZU1); test: Calcium flux in HEK293 overexpressing TRPML1 plasma membrane variant (FLIPR, Calcium 6 dye); type: cell-based; conditions: HEK293/TRPML1-PM clone A5 cells; 4-parameter logistic fit; read-out: TRPML1 calcium flux (FLIPR) dose response: EC50
Sequence of TRPML1 (Q9GZU1 17-572 limits assumed): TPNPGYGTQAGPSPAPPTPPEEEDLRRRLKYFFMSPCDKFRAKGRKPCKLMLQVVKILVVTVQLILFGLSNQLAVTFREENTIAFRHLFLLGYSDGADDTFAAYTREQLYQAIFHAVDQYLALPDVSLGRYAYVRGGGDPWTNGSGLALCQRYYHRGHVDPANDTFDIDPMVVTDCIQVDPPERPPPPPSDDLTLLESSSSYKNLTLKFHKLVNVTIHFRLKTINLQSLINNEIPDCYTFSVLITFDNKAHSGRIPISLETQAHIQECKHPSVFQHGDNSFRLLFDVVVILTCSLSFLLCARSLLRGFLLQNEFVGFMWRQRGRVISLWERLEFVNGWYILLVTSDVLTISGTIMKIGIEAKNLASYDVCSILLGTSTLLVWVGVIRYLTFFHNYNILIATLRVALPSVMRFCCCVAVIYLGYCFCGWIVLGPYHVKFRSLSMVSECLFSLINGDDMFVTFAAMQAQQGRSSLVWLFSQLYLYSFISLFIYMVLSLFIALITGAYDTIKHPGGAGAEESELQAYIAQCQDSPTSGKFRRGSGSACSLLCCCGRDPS
Procedure, shortened: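 HEK293 clone expressing plasma-membrane-targeted TRPML1 (N- and C-terminal dileucine motifs deleted), loaded with Calcium 6 dye for 2 h at 37 °C in HBSS/20 mM HEPES pH 7.4. Fluorescence recorded 10 s baseline then 170 s after compound addition. Max-minus-min response over baseline fitted by 4-parameter logistic for EC50.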

SMILES | pEC50 (TFEB; Homo sapiens, HeLa, 1.5 h) | pEC50 (TRPML1) | pEC50 (TFEB; Homo sapiens, 1.5 h) | pEC50 (TFEB)
CN(Cc1cscn1)c1c(F)cccc1NS(=O)(=O)c1ccc(S(=O)(=O)N(C)C)cc1 [Compound 68, N1-(3-fluoro-2-(methyl(thiazol-4-ylmethyl)amino)phenyl)-N4,N4-dimethylbenzene-1,4-disulfonamide] | 5.65 | 5.99 | – | –
CN(CC1CCC1)c1c(Cl)cccc1NS(=O)(=O)c1ccc(S(=O)(=O)N(C)C)cc1 [Compound 69, N1-(3-chloro-2-((cyclobutylmethyl)(methyl)amino)phenyl)-N4,N4-dimethylbenzene-1,4-disulfonamide] | 6.47 | 6.38 | – | –
CN(Cc1cncs1)c1c(F)cccc1NS(=O)(=O)c1ccc(S(=O)(=O)N(C)C)cc1 [Compound 70, N1-(3-Fluoro-2-(methyl(thiazol-5-ylmethyl)amino)phenyl)-N4,N4-dimethylbenzene-1,4-disulfonamide] | 5.16 | 5.87 | – | –
Cc1cccc(NS(=O)(=O)c2ccc(S(=O)(=O)N(C)C)cc2)c1N(C)Cc1cscn1 [Compound 71, N1,N1-dimethyl-N4-(3-methyl-2-(methyl(thiazol-4-ylmethyl)amino)phenyl)benzene-1,4-disulfonamide] | 5.39 | 6.09 | – | –
Cc1cccc(NS(=O)(=O)c2ccc(S(=O)(=O)N(C)C)cc2)c1N(C)Cc1cncs1 [Compound 72, N1,N1-Dimethyl-N4-(3-methyl-2-(methyl(thiazol-5-ylmethyl)amino)phenyl)benzene-1,4-disulfonamide] | 5.75 | 6.24 | – | –
CN(Cc1cncs1)c1c(Cl)cccc1NS(=O)(=O)c1ccc(S(=O)(=O)N(C)C)cc1 [Compound 73, N1-(3-chloro-2-(methyl(thiazol-5-ylmethyl)amino)phenyl)-N4,N4-dimethylbenzene-1,4-disulfonamide] | 5.31 | 6.00 | – | –
CCCN(C)c1c(Cl)cccc1NS(=O)(=O)c1ccc(S(=O)(=O)N(C)C)cc1 [Compound 74, N1-(3-chloro-2-(methyl(propyl)amino)phenyl)-N4,N4-dimethylbenzene-1,4-disulfonamide] | 6.17 | 6.62 | – | –
CC(C)CN(C)c1c(Cl)cccc1NS(=O)(=O)c1ccc(S(=O)(=O)N(C)C)cc1 [Compound 76, N1-(3-chloro-2-(isobutyl(methyl)amino)phenyl)-N4,N4-dimethylbenzene-1,4-disulfonamide] | 6.48 | 6.28 | – | –
CCN(CC)c1c(Cl)cccc1NS(=O)(=O)c1ccc(S(=O)(=O)N(C)C)cc1 [Compound 77, N1-(3-chloro-2-(diethylamino)phenyl)-N4,N4-dimethylbenzene-1,4-disulfonamide] | 6.15 | 6.33 | – | –
CCN(C)c1c(Cl)cccc1NS(=O)(=O)c1ccc(S(=O)(=O)N(C)C)cc1 [Compound 78, N1-(3-chloro-2-(ethyl(methyl)amino)phenyl)-N4,N4-dimethylbenzene-1,4-disulfonamide] | 5.84 | 6.06 | – | –
CN(C)S(=O)(=O)c1ccc(S(=O)(=O)Nc2ccccc2N(CC(F)(F)F)C2CCCCC2)cc1 [Compound 81, N1-(2-(cyclohexyl(2,2,2-trifluoroethyl)amino)phenyl)-N4,N4-dimethylbenzene-1,4-disulfonamide] | 6.49 | 6.34 | – | –
CN(C)S(=O)(=O)c1ccc(S(=O)(=O)Nc2ccccc2N(CC2COC2)C2CCCCC2)cc1 [Compound 84, N1-(2-(Cyclohexyl(oxetan-3-ylmethyl)amino)phenyl)-N4,N4-dimethylbenzene-1,4-disulfonamide] | 6.18 | 6.25 | – | –
Cc1nc(CN(C)c2ccccc2NS(=O)(=O)c2ccc(S(=O)(=O)N(C)C)cc2)ccc1F [Compound 85, N1-(2-(((5-fluoro-6-methylpyridin-2-yl)methyl)(methyl)amino)phenyl)-N4,N4-dimethylbenzene-1,4-disulfonamide] | 6.00 | 6.35 | – | –
CN(c1ccccc1NS(=O)(=O)c1ccc(S(=O)(=O)N(C)C)cc1)C1CCOC2(CCC2)C1 (centres unmarked) [Compound 87, N1,N1-dimethyl-N4-(2-(methyl(5-oxaspiro[3.5]nonan-8-yl)amino)phenyl)benzene-1,4-disulfonamide] | 6.17 | 6.08 | – | –
CN(c1ccc(C#N)cc1NS(=O)(=O)c1ccc(S(=O)(=O)N(C)C)cc1)C1CCCCC1 [Compound 89, N1-(5-cyano-2-(cyclohexyl(methyl)amino)phenyl)-N4,N4-dimethylbenzene-1,4-disulfonamide] | – | 6.17 | 5.62 | –
CN(c1c(C#N)cccc1NS(=O)(=O)c1ccc(S(=O)(=O)N(C)C)cc1)C1CCCCC1 [Compound 91, N1-(3-cyano-2-(cyclohexyl(methyl)amino)phenyl)-N4,N4-dimethylbenzene-1,4-disulfonamide] | 6.70 | 7.11 | – | –
CN(CC1(F)CCCC1)c1ccccc1NS(=O)(=O)c1ccc(S(=O)(=O)N(C)C)cc1 [Compound 93, N1-(2-(((1-fluorocyclopentyl)methyl)(methyl)amino)phenyl)-N4,N4-dimethylbenzene-1,4-disulfonamide] | 6.19 | 6.07 | – | –
CN(CC1(F)CC1)c1ccccc1NS(=O)(=O)c1ccc(S(=O)(=O)N(C)C)cc1 [Compound 95, N1-(2-(((1-fluorocyclopropyl)methyl)(methyl)amino)phenyl)-N4,N4-dimethylbenzene-1,4-disulfonamide] | 5.90 | 6.56 | – | 6.04
CN(CC1(F)CCCCC1)c1ccccc1NS(=O)(=O)c1ccc(S(=O)(=O)N(C)C)cc1 [Compound 96, N1-(2-(((1-fluorocyclohexyl)methyl)(methyl)amino)phenyl)-N4,N4-dimethylbenzene-1,4-disulfonamide] | – | 6.61 | 6.85 | –
CN(c1ccccc1NS(=O)(=O)c1ccc(S(=O)(=O)N(C)C)cc1)C1CCOC1(C)C (centres unmarked) [Compound 97, N1-(2-((2,2-dimethyltetrahydro-furan-3-yl)(methyl)amino)phenyl)-N4,N4-dimethylbenzene-1,4-disulfonamide] | 6.29 | 6.46 | – | –
Cc1cccc(NS(=O)(=O)c2ccc(S(=O)(=O)N(C)C)cc2)c1N(C)C1CCCCC1 [Compound 98, N1-(2-(cyclohexyl(methyl)amino)-3-methylphenyl)-N4,N4-dimethylbenzene-1,4-disulfonamide] | 6.93 | 7.33 | – | –
CN(c1ccccc1NS(=O)(=O)c1ccc(S(=O)(=O)N(C)C)cc1)C1CCC(F)(F)C1 (centres unmarked) [Compound 99, N1-(2-((3,3-difluorocyclopentyl) (methyl)amino)phenyl)-N4,N4-dimethylbenzene-1,4-disulfonamide] | 6.24 | 6.36 | – | –
[2H]C([2H])([2H])N(c1ccccc1NS(=O)(=O)c1ccc(S(=O)(=O)N(C)C)cc1)C1CCCCC1 [Compound 102, N1-(2-(cyclohexyl(methyl-d3)amino)phenyl)-N4,N4-dimethylbenzene-1,4-disulfonamide] | 6.41 | 6.39 | – | –
CN(c1ccccc1NS(=O)(=O)c1ccc(S(=O)(=O)N(C)C)cc1)C1CCCC(F)(F)C1 (centres unmarked) [Compound 104, N1-(2-((3,3-difluorocyclohexyl) (methyl)amino)phenyl)-N4,N4-dimethylbenzene-1,4-disulfonamide] | 6.24 | 6.15 | – | –
CN(CC1CCC1)c1ccccc1NS(=O)(=O)c1ccc(S(=O)(=O)N(C)C)cc1 [Compound 106, N1-(2-((cyclobutylmethyl)(methyl)amino)phenyl)-N4,N4-dimethylbenzene-1,4-disulfonamide] | 6.33 | 6.43 | – | –
CN(CC1CCCCO1)c1ccccc1NS(=O)(=O)c1ccc(S(=O)(=O)N(C)C)cc1 (centres unmarked) [Compound 108, N1,N1-dimethyl-N4-(2-(methyl((tetrahydro-2H-pyran-2-yl)methyl)amino)phenyl)benzene-1,4-disulfonamide] | 6.37 | 6.10 | – | –
